# Test results from ChEMBL document CHEMBL5385896, “Discovery of PIM-1 kinase inhibitors based on the 2,5-disubstituted 1,3,4-oxadiazole scaffold against prostate cancer: Design, synthesis, in vitro and in vivo cytotoxicity investigation” (Eur J Med Chem, 2023).
# Active and inactive are the calls of the source. No cut-off for these calls is given here.
# Experiments:
# [1] = test system: MCF7; test: cells; type: functional, cell-based; conditions: Homo sapiens, MCF7, 48 h
# Description: Cytotoxicity against human MCF7 cells assessed as inhibition of cell growth incubated for 48 hrs by MTT assay
# [2] = test system: PC-3; test: cells; type: functional, cell-based; conditions: Homo sapiens, PC-3, 48 h
# Description: Cytotoxicity against human PC-3 cells assessed as inhibition of cell growth incubated for 48 hrs by MTT assay
# [3] = test system: HepG2; test: Cytotoxicity against human HepG2 cells assessed as inhibition of cell growth incubated for 48 hrs by MTT assay; type: functional, cell-based; conditions: HepG2, 48 h
# [4] = Antioxidant activity assessed as DPPH radical scavenging activity at 100 uM incubated for 30 mins relative to control; type: functional
# [5] = in vitro; conditions: human, RWPE2 cells
# Description: Cytotoxicity against human RWPE2 cells assessed as inhibition of cell growth incubated for 48 hrs by MTT assay
# [6] = Antioxidant activity assessed as DPPH radical scavenging activity incubated for 30 mins; type: functional
# [7] = test system: PC-3; test: Antitumor activity against human PC-3 cells xenografted in mouse assessed as decrease in tumor volume at 4.2 mg/kg,ip administration; type: functional
# [8] = Toxicity in mouse xenografted with human PC-3 cells assessed as lethal dose at ip administration; type: organism-based; conditions: in vivo
# [9] = test system: PC-3; test: Induction of cell cycle arrest in human PC-3 cells assessed as accumulation of cells at G2/M-phase at 0.017 uM incubated for 48 hrs by Annexin V-FITC and PI staining based flow cytometric analysis (reference value: 13.19 %); type: functional
# [10] = test system: PC-3; test: Induction of apoptosis in human PC-3 cells assessed as fold change in caspase-9 gene expression at 0.017 uM incubated for 48 hrs by RT-PCR analysis; type: functional
# [11] = test system: PC-3; test: Induction of apoptosis in human PC-3 cells assessed as fold increase in apoptosis at 0.017 uM incubated for 48 hrs by DAPI-staining based confocal microscopic analysis; type: functional
# [12] = test system: PC-3; test: Induction of apoptosis in human PC-3 cells at 0.017 uM incubated for 48 hrs by Annexin V-FITC and PI staining based flow cytometric analysis relative to control; type: functional
# [13] = test system: PC-3; test: Antitumor activity against human PC-3 cells xenografted in mouse assessed as decrease in body weight loss at 4.2 mg/kg,ip administration; type: functional, organism-based
# [14] = test system: PC-3; test: Antitumor activity against human PC-3 cells xenografted in mouse assessed as tumor growth inhibition at 4.2 mg/kg,ip administration; type: functional; conditions: read-out: TGI
# [15] = test system: PC-3; test: Antitumor activity against human PC-3 cells xenografted in mouse assessed as decrease in WBC count at 5.2 mg/kg,ip administration (reference value: 4.98 +/- 0.87 10^3/microL); type: functional
# [16] = test system: PC-3; test: Antitumor activity against human PC-3 cells xenografted in mouse assessed as decrease in AST level at 5.2 mg/kg,ip administration (reference value: 85.38 +/- 1.59 I/U); type: functional
# [17] = test system: PC-3; test: Antitumor activity against human PC-3 cells xenografted in mouse assessed as hepatocyte balloon degeneration at 5.2 mg/kg,ip administration by; type: functional, organism-based
# [18] = test system: PC-3; test: Antitumor activity against human PC-3 cells xenografted in mouse assessed as increase in total protein level at 5.2 mg/kg,ip administration (reference value: 4.01 +/- 0.27 g/dl); type: functional
# [19] = target: Serine/threonine-protein kinase pim-1 (Homo sapiens, UniProt P11309); test: Inhibition of PIM-1 (unknown origin)
# [20] = test system: PC-3; test: Induction of apoptosis in human PC-3 cells assessed as nuclear condensation at 0.017 uM incubated for 48 hrs by DAPI-staining based confocal microscopic analysis; type: functional, cell-based
# [21] = test system: PC-3; test: Induction of apoptosis in human PC-3 cells assessed as fold change in caspase-3 gene expression at 0.017 uM incubated for 48 hrs by RT-PCR analysis; type: functional
# [22] = test system: PC-3; test: Induction of cell cycle arrest in human PC-3 cells assessed as accumulation of cells at S-phase at 0.017 uM incubated for 48 hrs by Annexin V-FITC and PI staining based flow cytometric analysis (reference value: 42.08 %); type: functional
# [23] = test system: PC-3; test: Antitumor activity against human PC-3 cells xenografted in mouse assessed as increase in RBC count at 5.2 mg/kg,ip administration (reference value: 2.34 +/- 0.57 10^6/microL); type: functional
# [24] = test system: PC-3; test: Induction of apoptosis in human PC-3 cells assessed as necrotic cells at 0.017 uM incubated for 48 hrs by Annexin V-FITC and PI staining based flow cytometric analysis (reference value: 0.77 %); type: functional
# [25] = test system: PC-3; test: Induction of cell cycle arrest in human PC-3 cells assessed as accumulation of cells at G1-phase at 0.017 uM incubated for 48 hrs by Annexin V-FITC and PI staining based flow cytometric analysis (reference value: 44.73 %); type: functional
# [26] = test system: PC-3; test: Induction of apoptosis in human PC-3 cells assessed as fold decrease in BCL-2 gene expression at 0.017 uM incubated for 48 hrs by RT-PCR analysis; type: functional
# [27] = test system: PC-3; test: Antitumor activity against human PC-3 cells xenografted in mouse assessed as decrease in ALT level at 5.2 mg/kg,ip administration (reference value: 81.25 +/- 1.69 I/U); type: functional
# [28] = test system: PC-3; test: Antitumor activity against human PC-3 cells xenografted in mouse assessed as decrease in tumor mass at 4.2 mg/kg,ip administration; type: functional
# [29] = test system: PC-3; test: Antitumor activity against human PC-3 cells xenografted in mouse assessed as hepatocyte hydropic degeneration at 5.2 mg/kg,ip administration by; type: functional, organism-based
# [30] = test system: PC-3; test: Induction of apoptosis in human PC-3 cells assessed as fold change in PUMA gene expression at 0.017 uM incubated for 48 hrs by RT-PCR analysis; type: functional
# [31] = test system: PC-3; test: Induction of cell cycle arrest in human PC-3 cells assessed as accumulation of cells at PreG1-phase at 0.017 uM incubated for 48 hrs by Annexin V-FITC and PI staining based flow cytometric analysis (reference value: 1.37 %); type: functional
# [32] = test system: PC-3; test: Antitumor activity against human PC-3 cells xenografted in mouse assessed as increase in hemoglobin level at 5.2 mg/kg,ip administration (reference value: 2.94 +/- 0.54 g/dl); type: functional
# [33] = test system: PC-3; test: Antitumor activity against human PC-3 cells xenografted in mouse assessed as decrease in liver damage at 5.2 mg/kg,ip administration by; type: functional, organism-based
# [34] = test system: PC-3; test: Induction of apoptosis in human PC-3 cells assessed as late apoptotic cells at 0.017 uM incubated for 48 hrs by Annexin V-FITC and PI staining based flow cytometric analysis (reference value: 0.18 %); type: functional
# [35] = test system: PC-3; test: Induction of apoptosis in human PC-3 cells assessed as fold change in p53 gene expression at 0.017 uM incubated for 48 hrs by RT-PCR analysis; type: functional
# [36] = test system: PC-3; test: Induction of apoptosis in human PC-3 cells assessed as fold decrease in STAT3 gene expression at 0.017 uM incubated for 48 hrs by RT-PCR analysis; type: functional
# [37] = test system: PC-3; test: Induction of apoptosis in human PC-3 cells assessed as fold decrease in JAK2 gene expression at 0.017 uM incubated for 48 hrs by RT-PCR analysis; type: functional
# [38] = test system: PC-3; test: Induction of apoptosis in human PC-3 cells assessed as early apoptotic cells at 0.017 uM incubated for 48 hrs by Annexin V-FITC and PI staining based flow cytometric analysis (reference value: 0.27 %); type: functional
# [39] = test system: PC-3; test: Induction of apoptosis in human PC-3 cells assessed as fold change in caspase-8 gene expression at 0.017 uM incubated for 48 hrs by RT-PCR analysis; type: functional
# [40] = test system: PC-3; test: Antitumor activity against human PC-3 cells xenografted in mouse assessed as decrease in tumor volume at 5.2 mg/kg,ip administration; type: functional
# [41] = test system: PC-3; test: Antitumor activity against human PC-3 cells xenografted in mouse assessed as decrease in tumor mass at 5.2 mg/kg,ip administration; type: functional; set-up: scale not given: the % may be the effect or the level left
# Sequence of Serine/threonine-protein kinase pim-1 (P11309 whole entry): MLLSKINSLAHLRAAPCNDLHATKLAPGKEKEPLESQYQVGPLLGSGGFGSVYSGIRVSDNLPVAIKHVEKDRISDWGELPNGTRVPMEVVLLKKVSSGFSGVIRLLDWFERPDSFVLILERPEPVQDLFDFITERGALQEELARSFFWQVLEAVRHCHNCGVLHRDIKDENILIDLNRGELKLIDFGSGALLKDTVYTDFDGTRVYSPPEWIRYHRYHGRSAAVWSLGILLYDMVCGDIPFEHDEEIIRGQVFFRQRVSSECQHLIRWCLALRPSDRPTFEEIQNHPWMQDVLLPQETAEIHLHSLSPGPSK
smiles,measurement,setting,value
COc1ccc(-c2nnc(-c3ccnc(-c4ccccc4)c3)o2)c(F)c1,IC50,[1],20.5 µM
same,IC50,[2],2.01 µM
same,IC50,[3],13.7 µM
Cc1c(C)c2c(c(C)c1O)CCC(C)(C(=O)O)O2 (configuration not stated),Activity,[4],96%
COc1ccc(-c2nnc(-c3ccnc(-c4ccccc4)c3)o2)cc1,IC50,[1],9.7 µM
same,IC50,[2],0.56 µM
same,IC50 at 48 h,[5],≥ 50 µM
same,Activity,[6],Dose-Dependent Effect
same,IC50,[3],7.06 µM
Clc1cccc(-c2nnc(-c3ccnc(-c4ccccc4)c3)o2)c1,Activity,[7],34.1 mm3
same,LD50,[8],4.2 mg/kg
same,Activity,[9],7.46%
same,fold change (FC),[10],8.67
same,fold change (FC),[11],37.2
same,Activity,[12],19.44%
same,Activity,[13],Active
same,IC50,[1],5.37 µM
same,IC50,[2],0.016 µM
same,inhibition in vivo at 4.2 mg/kg,[14],64.2%
same,Activity,[15],2.87 10^3 /uL
same,Activity,[16],48.9 U/L
same,Activity,[17],Active
same,Activity,[18],5.74 g/dL
same,IC50,[19],17 µM
same,Activity,[20],Active
same,fold change (FC),[21],6.98
same,Activity,[22],45.18%
same,Activity,[23],4.02 10^6 /uL
same,IC50 at 48 h,[5],35.4 µM
same,Activity,[24],11.9%
same,Activity,[25],47.36%
same,fold change (FC),[26],0.45
same,Activity,[27],49.8 U/L
same,Activity,[28],89.4 mg
same,Activity,[29],Active
same,fold change (FC),[30],3.85
same,Activity,[31],26.44%
same,Activity,[32],6.89 g/dL
same,Activity,[33],Active
same,Activity,[34],17.35%
same,Activity,[6],Dose-Dependent Effect
same,fold change (FC),[35],6.58
same,IC50,[3],0.13 µM
same,fold change (FC),[36],0.48
same,fold change (FC),[37],0.52
same,Activity,[38],2.09%
same,Activity,[4],94%
same,fold change (FC),[39],3.25
FC(F)(F)c1ccc(-c2cc(-c3nnc(-c4cccc(Cl)c4)o3)ccn2)cc1,IC50,[1],10 µM
same,IC50,[2],≥ 50 µM
same,IC50,[3],3.24 µM
COc1cccc(-c2nnc(-c3ccnc(-c4ccc(C(F)(F)F)cc4)c3)o2)c1,IC50,[1],12.4 µM
same,IC50,[2],13.2 µM
same,IC50,[3],≥ 50 µM
Fc1ccc(-c2nnc(-c3ccnc(-c4ccc(C(F)(F)F)cc4)c3)o2)cc1,IC50,[1],13.7 µM
same,IC50,[2],0.82 µM
same,IC50 at 48 h,[5],45.7 µM
same,Activity,[6],Dose-Dependent Effect
same,IC50,[3],7.21 µM
c1ccc(-c2cc(-c3nnc(-c4ccccc4)o3)ccn2)cc1,IC50,[1],8.36 µM
same,IC50,[2],12.7 µM
same,IC50 at 48 h,[5],42.6 µM
same,IC50,[3],13.9 µM
FC(F)(F)c1ccc(-c2cc(-c3nnc(-c4ccccc4)o3)ccn2)cc1,IC50,[1],9.66 µM
same,IC50,[2],≥ 50 µM
same,IC50,[3],4.03 µM
COc1ccc(-c2nnc(-c3ccnc(-c4ccc(C(F)(F)F)cc4)c3)o2)cc1,IC50,[1],25.7 µM
same,IC50,[2],9.31 µM
same,IC50,[3],3.25 µM
COc1cccc(-c2nnc(-c3ccnc(-c4ccccc4)c3)o2)c1,IC50,[1],0.75 µM
same,IC50,[2],3.21 µM
same,IC50,[3],≥ 50 µM
Fc1ccc(-c2nnc(-c3ccnc(-c4ccccc4)c3)o2)cc1,IC50,[1],18.9 µM
same,IC50,[2],2.31 µM
same,IC50,[3],≥ 50 µM
Fc1cccc(-c2nnc(-c3ccnc(-c4ccc(C(F)(F)F)cc4)c3)o2)c1,IC50,[1],70.1 µM
same,IC50,[2],0.76 µM
same,IC50 at 48 h,[5],31.9 µM
same,Activity,[6],Dose-Dependent Effect
same,IC50,[3],6.02 µM
CN[C@@H]1C[C@H]2O[C@@](C)([C@@H]1OC)n1c3ccccc3c3c4c(c5c6ccccc6n2c5c31)C(=O)NC4 [STAUROSPORINE],Activity,[15],2.81 10^3 /uL
same,Activity,[16],47.38 U/L
same,Activity,[40],52.9 mm3
same,Activity,[18],5.39 g/dL
same,Activity,[23],4.95 10^6 /uL
same,Activity,[27],50.4 U/L
same,Activity,[41],20%
same,Activity,[32],6.52 g/dL
same,IC50,[3],5.07 µM
Fc1cccc(-c2nnc(-c3ccnc(-c4ccccc4)c3)o2)c1,IC50,[1],3.8 µM
same,IC50,[2],6.21 µM
same,IC50,[3],4.31 µM
